The values that follow come from EP4772505A1, “COMPOUND FOR DEGRADING ANDROGEN RECEPTOR AND MEDICAL USE THEREOF” (Ubix Therapeutics, Inc., priority 2023, dated 2025).

Changes are numbered by the printed parent chain. Read-outs that look alike come from different tables or passages of the source.

Experiment [1] has as its target T1, Androgen Receptor (AR) (Homo sapiens, UniProt P10275, T878A).
T1 construct: endogenous in cells; host or cells: LNCaP
T1 sequence (P10275 1-920 T878A): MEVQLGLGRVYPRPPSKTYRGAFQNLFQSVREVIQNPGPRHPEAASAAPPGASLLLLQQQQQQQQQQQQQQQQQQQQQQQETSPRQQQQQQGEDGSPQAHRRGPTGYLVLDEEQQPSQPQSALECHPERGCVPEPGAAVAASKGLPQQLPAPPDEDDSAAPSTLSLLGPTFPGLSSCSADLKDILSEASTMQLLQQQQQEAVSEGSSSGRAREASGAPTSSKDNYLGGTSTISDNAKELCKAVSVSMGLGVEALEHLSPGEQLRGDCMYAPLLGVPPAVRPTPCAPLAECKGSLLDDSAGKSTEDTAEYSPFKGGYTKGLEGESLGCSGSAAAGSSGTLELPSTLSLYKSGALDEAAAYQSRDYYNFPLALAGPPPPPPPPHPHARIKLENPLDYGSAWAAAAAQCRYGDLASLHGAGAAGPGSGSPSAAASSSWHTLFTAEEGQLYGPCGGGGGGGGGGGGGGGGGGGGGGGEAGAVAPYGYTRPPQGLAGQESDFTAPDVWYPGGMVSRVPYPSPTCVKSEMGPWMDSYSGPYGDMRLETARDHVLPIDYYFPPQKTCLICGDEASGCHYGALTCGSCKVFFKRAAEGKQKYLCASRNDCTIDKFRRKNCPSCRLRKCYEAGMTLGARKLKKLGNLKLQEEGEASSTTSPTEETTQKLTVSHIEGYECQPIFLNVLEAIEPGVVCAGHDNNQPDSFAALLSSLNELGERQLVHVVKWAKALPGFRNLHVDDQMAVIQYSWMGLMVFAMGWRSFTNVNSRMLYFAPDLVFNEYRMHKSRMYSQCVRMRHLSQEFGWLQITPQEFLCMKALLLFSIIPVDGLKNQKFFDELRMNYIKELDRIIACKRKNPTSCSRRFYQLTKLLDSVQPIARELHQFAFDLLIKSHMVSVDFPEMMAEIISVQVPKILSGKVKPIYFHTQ
Nature of the experiment: Measurement of AR protein degradation in LNCaP cells by Western blotting. It counts as cell-based. The settings on record: read-out: AR degradation in LNCaP cells (%). As to the method:
(§1) The amount of AR protein present in LNCaP or VCaP cells was measured after treating them with the synthesized compound. The amount of AR protein was measured using Western blotting. The protocol for the experiments using LNCaP or VCaP cells was as follows.
(§2) [Culture] LNCaP cells were resuspended in RPMI1640 medium + HEPES (Hyclone, SH30255.01), 10% FBS (Hyclone, SV30207.02), and 1% Penicillin-streptomycin (Welgene, LS 202-02). 3 x 10^5 cells/mL were seeded in 12-well plates (1 mL per well) and cultured for 3 days. VCaP cells were resuspended in IMDM MEDIUM (Hyclone, SH30228.01), 20% FBS (Hyclone, SV30207.02), and 1% Penicillin-streptomycin (Welgene, LS 202-02), seeded at 9 x 10^5/mL in 1 mL per 12-well plate, and cultured for 3 days.
(§3) [Compound Treatment] 10 µL of 100x stock (e.g., 0.1, 1, 10 µM) compound solution at the final compound treatment concentration (e.g., 0.001, 0.01, 0.1 µM) was added to each well in 1 mL media, and cells were harvested after 20 hours. For DC50 measurement, 100x stock (0.01, 0.1, 1, 10, 100, 1000 µM) compound solutions at the final compound treatment concentration (0.0001, 0.001, 0.01, 0.1, 1, 10 µM) were used.
(§4) [Cell lysis] The cell pellet was suspended using 1% SDS lysis buffer (50 mM Tris, 1 mM EDTA, 1% SDS, pH 8.0, 0.5 mM PMSF, 1x Protease/Phosphatase inhibitor Cocktail (Cell Signaling Technology, 5872S)), and sonication (70% AMP, 10 cycles (30 sec ON/59 sec OFF)) was performed. After centrifugation at 4°C and 20,000 g for 20 minutes, the cell lysate was obtained and transferred to a new tube.
(§5) [Protein Quantification] A BCA protein assay (SMART™ BCA Protein Assay Kit, iNtRON Biotechnology, 21071) was performed using a 96-well microplate. 5 µL of cell lysate and 5 µL of 1% SDS lysis buffer were added to each well of the 96-well plate, followed by an additional 200 µL of BCA reagent (Reagent A: Reagent B = 50:1). The wells were incubated at 37°C for 30 minutes and cooled to room temperature for 10 minutes. After shaking for 10 seconds, the absorbance was measured at a wavelength of 562 nm. The unknown protein concentration was determined using a BSA standard curve (0, 0.125, 0.25, 0.5, 1, 2 mg/mL). Western blotting samples were prepared by mixing cell lysate, 1% SDS lysis buffer, 4x NuPAGE™ LDS Sample buffer (Invitrogen, NP0008), and 10X NuPAGE™ Sample Reducing Agent (Invitrogen, NP0009) and boiling at 70°C for 10 minutes.
(§6) [Electrophoresis] 10 µg of protein sample was loaded into each well of a NuPAGE™ 4 to 12%, Bis-Tris, 1.0 mm Mini Protein Gel, 15-well, 17-well, or 26-well (Invitrogen, NP0323BOX, NP0329BOX, or WG1403BOX) and electrophoresed for 40 minutes using NuPAGE™MES SDS Running Buffer (Invitrogen, NP0002) at 200 V (constant V).
(§7) [Transfer] Transfer was performed for 15 or 18 minutes using the electrophoresed gel and the Trans-Blot® Turbo™ Transfer Starter System (Bio-RAD, #17001918, Mini Nitrocellulose) at 1.3 A (constant A) and 25 V (limit V). To confirm protein transfer, 15 mL of Ponceau S solution (Sigma, P7170-1L) was used to stain for 1 minute, and then washed to check the degree of transfer.
(§8) [Blocking] The membrane for AR and GAPDH detection was blocked with 5% skim milk/0.2% TBST (Skim milk: BD, 232100/ 20X TBS: Biosesang, TR2008-100-00/ 10% Tween 20 Solution: Bio-RAD, #161-0781) for 45 minutes.
(§9) [Antibodies and Detection] Primary AR antibody (Androgen Receptor: CST, 5153S) was mixed with 5% skim milk/0.2% TBST at a ratio of 1:1,000 and reacted at room temperature for 3 hours or at 4°C overnight. Primary GAPDH antibody (CST, 2118S) was mixed with 5% skim milk/0.2% TBST at a ratio of 1:2,000 and reacted at room temperature for 3 hours or at 4°C overnight. Afterwards, TBST (0.2% Tween 20) was used for washing three times every 5 minutes. Secondary antibody to AR antibody, Anti-rabbit IgG, HRP-linked Antibody (CST, 7074S), was mixed with 5% skim milk/0.2% TBST at a ratio of 1:5,000 and reacted at room temperature for 45 minutes. […]
On the technique in general: Immunoblotting shows a protein as a band on a membrane.

In experiment [2] the target is T2, Androgen Receptor (AR) (Homo sapiens, UniProt P10275).
T2 sequence (P10275 1-920): T1 sequence (P10275 1-920 T878A) with A878T
Nature of the experiment: Measurement of AR protein degradation in VCaP cells by Western blotting. Also on record: endogenous in cells; host or cells: VCaP. It counts as cell-based. The conditions noted are these: VCaP, 20 h, read-out: AR degradation in VCaP cells (%). As to the method: as §1, §2, §3, §4, §5, §6, §7, §8, §9

Turning to `N#Cc1ccc(N2CCC(C(=O)Nc3ccc(OC4CCN(C5CCN(c6ccc(NC7CCC(=O)NC7=O)cc6F)CC5)CC4)cn3)CC2)cc1C(F)(F)F` (stereo not drawn) [Example 4, 1-(4-cyano-3-(trifluoromethyl)phenyl)-N-(5-((1'-(4-((2,6-dioxopiperidin-3-yl)amino)-2-fluorophenyl)-[1,4'-bipiperidin]-4-yl)oxy)pyridin-2-yl)piperidine-4-carboxamide], on Androgen Receptor (AR) [1] (LNCaP, 20 h), the Dmax at 0.01 µM was 76% and the Dmax at 0.1 µM was determined as 93%.
Turning to `N#Cc1ncc(N2CCC(C(=O)Nc3ccc(OC4CCN(CC5CCN(c6ccc(NC7CCC(=O)NC7=O)cc6F)CC5)CC4)cn3)CC2)cc1C(F)(F)F` (stereo not drawn) [Example 5, 1-(6-cyano-5-(trifluoromethyl)pyridin-3-yl)-N-(5-((1-((1-(4-((2,6-dioxopiperidin-3-yl)amino)-2-fluorophenyl)piperidin-4-yl)methyl)piperidin-4-yl)oxy)pyridin-2-yl)piperidine-4-carboxamide], the Dmax at 0.01 µM at Androgen Receptor (AR) [1] (10 nM compound, 20 hours, LNCaP cells) was 63%. Further, on Androgen Receptor (AR) [1] (100 nM compound, 20 hours, LNCaP cells), the Dmax at 0.1 µM was 97%.
Regarding `N#Cc1ccc(N2CCN(C(=O)Nc3ccc(OC4CCN(CC5CCN(c6ccc(NC7CCC(=O)NC7=O)cc6F)CC5)CC4)cn3)CC2)cc1C(F)(F)F` (stereo not drawn) [Example 6, 4-(4-cyano-3-(trifluoromethyl)phenyl)-N-(5-((1-((1-(4-((2,6-dioxopiperidin-3-yl)amino)-2-fluorophenyl)piperidin-4-yl)methyl)piperidin-4-yl)oxy)pyridin-2-yl)piperazine-1-carboxamide], on Androgen Receptor (AR) [1] (LNCaP, 20 h), the Dmax at 0.01 µM worked out at 84% and the Dmax at 0.1 µM amounted to 99%.
As to `N#Cc1ccc(N2CCC(C(=O)Nc3ccc(OC4CCN(CC5CCN(c6ccc(NC7CCC(=O)NC7=O)cc6F)CC5)CC4)cn3)CC2)c(F)c1C(F)(F)F` (stereo not drawn) [Example 11, 1-(4-cyano-2-fluoro-3-(trifluoromethyl)phenyl)-N-(5-((1-((1-(4-((2,6-dioxopiperidin-3-yl)amino)-2-fluorophenyl)piperidin-4-yl)methyl)piperidin-4-yl)oxy)pyridin-2-yl)piperidine-4-carboxamide], on Androgen Receptor (AR) [2], the Dmax at 0.01 µM was determined as 89% and the Dmax at 0.1 µM was 99%.
As to `N#Cc1ccc(N2CCC(C(=O)Nc3ccc(OC4CCN(CC5CCN(c6ccc(NC7CCC(=O)NC7=O)cc6F)CC5)CC4)nn3)CC2)c(F)c1C(F)(F)F` (stereo not drawn) [Example 14, 1-(4-cyano-2-fluoro-3-(trifluoromethyl)phenyl)-N-(6-((1-((1-(4-((2,6-dioxopiperidin-3-yl)amino)-2-fluorophenyl)piperidin-4-yl)methyl)piperidin-4-yl)oxy)pyridazin-3-yl)piperidine-4-carboxamide], on Androgen Receptor (AR) [2], the Dmax at 0.01 µM was found to be 87% and the Dmax at 0.1 µM was found to be 95%.
On to `N#Cc1ccc(N2CCC(C(=O)Nc3ccc(OC4CCN(CC5CCN(c6ccc(NC7CCC(=O)NC7=O)cc6C(F)(F)F)CC5)CC4)cn3)CC2)cc1C(F)(F)F` (stereo not drawn) [Example 18, 1-(4-cyano-3-(trifluoromethyl)phenyl)-N-(5-((1-((1-(4-((2,6-dioxopiperidin-3-yl)amino)-2-(trifluoromethyl)phenyl)piperidin-4-yl)methyl)piperidin-4-yl)oxy)pyridin-2-yl)piperidine-4-carboxamide], for which, on Androgen Receptor (AR) [1] (LNCaP, 20 h), the Dmax at 0.01 µM was found to be 51% and the Dmax at 0.1 µM was found to be 98%.
